Measured values from ChEMBL document CHEMBL4043148, “Nitro-substituted tetrahydroindolizines and homologs: Design, kinetics, and mechanism of α-glucosidase inhibition” (Bioorg Med Chem Lett, 2017).
Active and inactive are the calls of the source. The calls are words filed in the database; no cut-off is given here.

Legend:
[1] = Inhibition of Saccharomyces cerevisiae alpha-glucosidase using 4-nitrophenyl alpha-D-glucopyranoside as substrate preincubated for 5 mins followed by substrate addition measured after 10 mins
[2] = test system: Saccharomyces cerevisiae; test: Inhibition of Saccharomyces cerevisiae alpha-glucosidase using 4-nitrophenyl alpha-D-glucopyranoside as substrate at 150 uM preincubated for 5 mins followed by substrate addition measured after 10 mins
[3] = test system: Saccharomyces cerevisiae; test: Mixed inhibition of Saccharomyces cerevisiae alpha-glucosidase assessed as Vmax for substrate up to 10 uM in presence of varying concentrations of 4-nitrophenyl alpha-D-glucopyranoside after 2 mins by Lineweaver-Burk plot analysis (reference value: 23.8 nmol/min/ml)
[4] = Mixed inhibition of Saccharomyces cerevisiae alpha-glucosidase assessed as enzyme inhibitor substrate constant up to 12.5 uM using 4-nitrophenyl alpha-D-glucopyranoside as substrate after 2 mins by Lineweaver-Burk plot analysis
[5] = test system: Saccharomyces cerevisiae; test: Reversible inhibition of Saccharomyces cerevisiae alpha-glucosidase up to 15 uM using 4-nitrophenyl alpha-D-glucopyranoside as substrate after 2 mins by Lineweaver-Burk plot analysis
[6] = test system: Saccharomyces cerevisiae; test: Mixed inhibition of Saccharomyces cerevisiae alpha-glucosidase assessed as Km for substrate up to 10 uM in presence of varying concentrations of 4-nitrophenyl alpha-D-glucopyranoside after 2 mins by Lineweaver-Burk plot analysis (reference value: 0.092 mM)
[7] = test system: Saccharomyces cerevisiae; test: Mixed inhibition of Saccharomyces cerevisiae alpha-glucosidase assessed as free-enzyme inhibition constant up to 12.5 uM using 4-nitrophenyl alpha-D-glucopyranoside as substrate after 2 mins by Lineweaver-Burk plot analysis
[8] = test system: Saccharomyces cerevisiae; test: Potency index, ratio of 1-deoxynojirimycin IC50 to compound IC50 for Saccharomyces cerevisiae alpha-glucosidase
[9] = test system: Saccharomyces cerevisiae; test: Inhibition of Saccharomyces cerevisiae alpha-glucosidase using 4-nitrophenyl alpha-D-glucopyranoside as substrate at 300 uM preincubated for 5 mins followed by substrate addition measured after 10 mins

| SMILES | IC50 [1] | also measured |
| --- | --- | --- |
| OC[C@H]1NC[C@H](O)[C@@H](O)[C@@H]1O [DUVOGLUSTAT] | 203 µM |  |
| CS(=O)(=O)Cc1c([N+](=O)[O-])cn2c1CCC2 | > 150 µM | inhibition [2]: 46% |
| COC(=O)C(c1c([N+](=O)[O-])cn2c1CCCC2)S(=O)(=O)Cc1ccccc1 (stereo not drawn) | 19.8 µM |  |
| COC(=O)C(c1c([N+](=O)[O-])cn2c1CCCC2)S(=O)(=O)Cc1ccc(C)cc1 (stereo not drawn) | 65 µM |  |
| COC(=O)C(c1c([N+](=O)[O-])cn2c1CCCC2)S(C)(=O)=O (stereo not drawn) | 8 µM | Vmax [3]: 10.7 nmol/min/mL; Ki [4]: 7.6 µM; inhibition [5]: Active; Km [6]: 140 µM; fKi [7]: 3.6 µM; Ratio IC50 [8]: 25 |
| COC(=O)C(c1c([N+](=O)[O-])cn2c1CCCCC2)S(C)(=O)=O (stereo not drawn) | 124 µM |  |
| COC(=O)C(c1c([N+](=O)[O-])cn2c1CCC2)S(C)(=O)=O (stereo not drawn) | 48 µM |  |
| O=[N+]([O-])c1cn2c(c1CS(=O)(=O)Cc1ccccc1)CCCC2 | 29 µM |  |
| CS(=O)(=O)Cc1c([N+](=O)[O-])cn2c1CCCCC2 | > 300 µM | inhibition [9]: inactive |
| CS(=O)(=O)Cc1c([N+](=O)[O-])cn2c1CCCC2 | 72 µM |  |
